pIC50: −log10 of the molar value.
Tests used:
HCV polymerase = target: T1, HCV polymerase (Hepatitis C virus genotype 1b, UniProt Q9WMX2); experiment: biochemical; conditions: polymerase assay of Biological Example 1; read-out: NS5B polymerase IC50
T1 construct: (His)6 (C)

[1] = system: HCV replicon I389luc-ubi-neo/NS3-3'/ET in ET (Huh-lucubineo-ET) cells; experiment: Replicon assay (Biological Example 2), luciferase read-out; assay type: cell-based; conditions: Hepatitis C virus, luciferase activity 48 hours after compound addition
Summary of the method: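 ET cells stably carry the replicon with adaptive mutations E1202G, […] and K1846T. Compound is added 24 h after plating at 0.1 nM–50 μM final (10-point, 3-fold dilutions) with 0.5% DMSO, and luciferase is read 48 h later. EC50 comes from a Hill-equation fit of % inhibition versus no-compound control.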

## CNC(=O)c1c(-c2ccc(C3CC3)cc2F)oc2nc(N(C)S(C)(=O)=O)c(C3CC3)cc12 [Example 2.98, 5-cyclopropyl-2-(4-cyclopropyl-2-fluorophenyl)-N-methyl-6-(N-methylmethylsulfonamido)furo[2,3-b]pyridine-3-carboxamide]
HCV polymerase
  pIC50: 8.30
[1]
  pIC50: ≥ 7.00

## CNC(=O)c1c(-c2ccc(F)cc2)oc2nc(N(CCCOCCOC)S(C)(=O)=O)c(C3CC3)cc12 [Example 25, 5-cyclopropyl-2-(4-fluorophenyl)-6-(N-(3-(2-methoxyethoxy)propyl)methylsulfonamido)-N-methylfuro[2,3-b]pyridine-3-carboxamide]
HCV polymerase
  pIC50: 8.30
[1]
  pIC50: ≥ 7.00

## CCc1cc2c(C(=O)NC)c(-c3ccc(F)cc3)oc2nc1N(CCCC1CCCS1(=O)=O)S(C)(=O)=O (single isomer, unassigned) [Example 22.991, 6-{[3-(1,1-Dioxo-tetrahydro-1lambdathiophen-2-yl)-propyl]-methanesulfonyl-amino}-5-ethyl-2-(4-fluoro-phenyl)-furo[2,3-b]pyridine-3-carboxylic acid methylamide]
HCV polymerase
  pIC50: 8.15
[1]
  pIC50: ≥ 7.00

## CNC(=O)c1c(-c2ccc(Oc3ccccc3)cc2)oc2nc(N(CCCCC(=O)O)S(C)(=O)=O)c(C3CC3)cc12 [Example 27, 5-(N-(5-cyclopropyl-3-(methylcarbamoyl)-2-(4-phenoxyphenyl)furo[2,3-b]pyridin-6-yl)methylsulfonamido) pentanoic acid]
HCV polymerase
  pIC50: 9.00
[1]
  pIC50: ≥ 7.00

## CNC(=O)c1c(-c2ccc(Cl)cc2)oc2nc(N(CCCC3CCCS3(=O)=O)S(C)(=O)=O)c(I)cc12 (stereo not shown) [Example 18.98, 2-(4-Chloro-phenyl)-6-{[3-(1,1-dioxo-tetrahydrothiophen-2-yl)-propyl]-methanesulfonyl-amino}-5-iodo-furo[2,3-b]pyridine-3-carobxylic acid methylamide]
HCV polymerase
  pIC50: 8.40
[1]
  pIC50: ≥ 7.00

## CNC(=O)c1c(-c2ccc(C3CC3)cc2)oc2nc(N(CCCC3CCCS3(=O)=O)S(C)(=O)=O)c(C3CC3)cc12 (stereo not shown) [Example 25.4, 5-Cyclopropyl-2-(4-cyclopropyl-phenyl)-6-{[3-(1,1-dioxo-tetrahydro-thiophen-2-yl)-propyl]-methanesulfonyl-amino}-furo[2,3-b]pyridine-3-carboxylic acid methylamide]
HCV polymerase
  pIC50: 9.00
[1]
  pIC50: ≥ 7.00

## CNC(=O)c1c(-c2ccc(Oc3ccc(F)cc3)cc2)oc2nc(N(CCCCC(=O)O)S(C)(=O)=O)c(C3CC3)cc12 [Example 27.2, 5-(N-(5-cyclopropyl-2-(4-(4-fluorophenoxy)phenyl)-3-(methylcarbamoyl)furo[2,3-b]pyridin-6-yl)methylsulfonamido) pentanoic acid]
HCV polymerase
  pIC50: 9.00
[1]
  pIC50: ≥ 7.00

## CNC(=O)c1c(-c2ccc(Cl)cc2F)oc2nc(N(C)S(C)(=O)=O)c(I)cc12 [Example 2.95, 2-(4-chloro-2-fluorophenyl)-5-iodo-N-methyl-6-(N-methylmethylsulfonamido)furo[2,3-b]pyridine-3-carboxamide]
HCV polymerase
  pIC50: 8.10
[1]
  pIC50: ≥ 7.00

## CNC(=O)c1c(-c2ccc(F)cc2)oc2nc(N(CCCS(C)(=O)=O)S(C)(=O)=O)c(C3CC3)cc12 [Example 24.01]
HCV polymerase
  pIC50: 9.00
[1]
  pIC50: ≥ 7.00

## CNC(=O)c1c(-c2ccc(F)cc2)oc2nc(N(C)S(C)(=O)=O)c(CCCCC(=O)N3CCC[C@H]3C(=O)O)cc12 [Example 4.7, (S)-1-(5-(2-(4-fluorophenyl)-3-(methylcarbamoyl)-6-(N-methylmethylsulfonamido)furo[2,3-b]pyridin-5-yl)pentanoyl)pyrrolidine-2-carboxylic acid]
HCV polymerase
  pIC50: 7.29
[1]
  pIC50: ≤ 5.30

## CCOC(=O)CCCCN(c1nc2oc(-c3ccc(Cl)cc3)c(C(=O)NC)c2cc1C1CC1)S(C)(=O)=O [Example 26.3, ethyl 5-(N-(2-(4-chlorophenyl)-5-cyclopropyl-3-(methylcarbamoyl)furo[2,3-b]pyridin-6-yl)methylsulfonamido) pentanoate]
HCV polymerase
  pIC50: 8.52
[1]
  pIC50: ≥ 7.00

From patent US20120015907A1, “Furopyridine compounds and uses thereof” (NOVARTIS AG, priority 2010, published 2012)
